# According to ChEMBL document CHEMBL3301361, “Experimental in vitro DMPK and physicochemical data on a set of publicly disclosed compounds”:
# Assay: physchem
# Conditions: octan-1-ol/water, pH 7.4, LogD7.4
row,logD,SMILES
1,0.68,CC(C)C(NC(=O)Cn1c(-c2cccs2)ncc(N)c1=O)C(=O)C(F)(F)F (stereo unspecified)
2,0.35,CC(C)C(NC(=O)Cn1c(-c2ccccc2)ccc(NC(=O)Cc2ccc(C(=O)O)cc2)c1=O)C(=O)C(F)(F)F (stereo unspecified)
3,0.66,COC(=O)c1c(O)cccc1OC/C=C/c1ccc(F)c(-c2cc(C(=O)O)no2)c1
4,0.7,N=C(N)Nc1ccc(C(=O)Oc2ccc(Cl)cc2)cc1
5,-0.28,CC(=N)NCc1ccccc1
6,-0.16,O=c1[nH]n(Cc2ccncc2)c(=O)c2c(=O)c3ccc(Cl)cc3[nH]c12
7,0.5,CC(=O)Nc1ccccn1
8,0.49,NC(=O)c1cccc(OC2CCN(CC3CC3)CC2)c1
9,0.48,CNS(=O)(=O)CCc1ccc2[nH]cc(C3CCN(C)CC3)c2c1
10,-0.4,Cc1nnc(N)s1
11,0.64,Cc1nc(C(=O)N2CCCC3(CCN(Cc4ccc(Cl)cc4)CC3)C2)cs1
12,0.24,Cc1nc(C(=O)N2CCCC3(CCN(Cc4ccccc4)CC3)C2)cs1
13,-0.91,CCN(c1ccccc1)c1cc(NC)[n+](C)c(C)n1
14,0.89,O=c1[nH][nH]c(=O)c2c(O)c3c(Cl)cc(Cl)cc3nc12
15,-0.01,C=CCc1cc(NC(C)=O)ccc1OCCCNC(C)C
16,-0.7,Cc1c(CCC(=O)O)c(=O)oc2cc(O)ccc12
17,0.87,Cn1sc(NC(=O)c2cccc(Cl)c2)nc1=O
18,0.6,c1ccc2nc(C3=NCCN3)ccc2c1
19,-0.2,CC(=O)Nc1nc(N)n(-c2ccccc2)n1
20,0.83,O=Cc1ccccc1B(O)O
21,0.6,O=c1c2ccccc2nc2n1CCO2
22,0.84,O=S(=O)(Nc1cccnc1)c1ccccc1
23,0.8,CCCCN1Cc2c(nc3cc(-c4ccco4)nn3c2O)C1=O
24,0,CN1CCN(CC(=O)Nc2c(C#N)cnn2-c2ccccc2)CC1

row,logD,SMILES
1,-0.21,N=C(N)Nc1ccc(C(=O)Oc2ccccc2)cc1
2,0.24,CC(=O)Nc1ccc(S(=O)(=O)Nc2ccccn2)cc1
3,-0.2,CC(C)(C)c1cc(O)n2nc(N)nc2n1
4,0.68,Cc1nc2c(C#N)cnn2c(O)c1Cc1ccccc1
5,-0.84,Cc1ccc(OCC(=O)O)c(-n2nc3ccccc3n2)c1
6,0.4,CCN(CC)CC(=O)Nc1c(C#N)cnn1-c1ccccc1
7,0.3,O=C(O)c1ccc(-c2nnn(Cc3ccccc3F)n2)cc1
8,-0.12,O=C(Nc1ccccc1)Nc1ccccc1C(=O)O
9,0.44,Nc1ccnc(-c2cccnc2)n1
10,0.31,CC1CN(Cc2cc(Cl)ccc2OCC(=O)O)CCN1S(=O)(=O)c1ccccc1 (stereo unspecified)
11,-0.21,Oc1cc(-c2ccccc2)nc2ncnn12
12,-0.41,COC[C@H](C)Oc1cc(Oc2ccc(S(C)(=O)=O)cc2)cc(C(=O)Nc2ccc(C(=O)O)cn2)c1
13,0.29,COc1ccc(-c2cc(C(F)(F)F)ccc2OCC(=O)O)cc1
14,-0.4,CCS(=O)(=O)c1ccc(-c2cc(C(F)(F)F)ccc2O[C@H](C)C(=O)O)c(C)c1
15,0.83,O=c1[nH]c2c(O)ccc([C@@H](O)CNCCOCCCNCCc3cccc(Cl)c3)c2s1
16,0.01,CCC(c1nc2ccsc2c(=O)n1Cc1cccnc1)N(CCCN)C(=O)c1ccc(C)cc1 (stereo unspecified)
17,0.02,CCC(c1nc2ccsc2c(=O)n1Cc1cscn1)N(CCCN)C(=O)c1ccc(C)cc1 (stereo unspecified)
18,-0.04,CCC(c1nc2ncccc2c(=O)n1Cc1ccccc1)N(CCCN)C(=O)c1ccc(C)cc1 (stereo unspecified)
19,3.81,CN1CCN(CCCOc2ccc(-c3cc(-c4ccc(F)cc4)no3)cc2)CC1
20,0.6,O=C(O)CCn1c2ccccc2c2ccccc21
21,-0.3,Cc1c(CCC(=O)O)c(=O)oc2c(C)c(O)ccc12
22,-0.54,CNC(=O)c1cnn(-c2ccccc2)c1NS(=O)(=O)c1ccc(C)cc1
23,0.29,COc1ccc2c(C)nc(=O)n(CCN3CCC(NCc4cc5c(cn4)OCCO5)CC3)c2c1
24,-0.14,COc1ncc2ncc(=O)n(CCN3CCC(NCc4cc5c(cn4)OCCO5)CC3)c2n1

row,logD,SMILES
1,0.29,CCS(=O)(=O)c1ccc(Oc2c(C)n(CC(=O)O)c3ccc(C(F)(F)F)cc23)cc1
2,0.35,Cc1ccc2c(n1)c(Sc1ccc(Cl)cc1)c(C)n2CC(=O)O
3,-0.06,C[C@H]1O[C@@H](n2cnc3c(N)nc(OC4CCOC4)nc32)[C@H](O)[C@@H]1O (stereo partly specified)
4,0.73,c1ccc(CNCCNCc2ccccc2)cc1
5,0.81,CC(C)Oc1cc(OCCc2cccnc2)cc(C(=O)Nc2ccc(C(=O)O)cn2)c1
6,0.69,O=c1[nH]c2c(O)ccc([C@@H](O)CNCCc3cccc(CNCc4ccccc4F)c3)c2s1
7,-0.54,COCCNCc1ccc(CCNC[C@H](O)c2ccc(O)c3[nH]c(=O)sc23)cc1
8,0.77,CN[C@@H](C)C(=O)N[C@H](C(=O)N[C@H]1CCCN(CCc2ccc(O)cc2)C1)C(C)(C)C
9,-0.55,CN[C@@H](C)C(=O)N[C@H](C(=O)N[C@H]1CCCN(CCc2ccccn2)C1)C(C)(C)C
10,-0.51,N=C(N)NC(=O)c1nc(Cl)c(NCc2ccncc2)nc1N
11,-0.56,N=C(N)NC(=O)c1nc(Cl)c(NCc2ccccn2)nc1N
12,0.25,COc1ccc(-c2nc3c(NCCCNC(=O)c4ccccc4)c(Br)cnc3[nH]2)cc1
13,-0.04,O=C(NS(=O)(=O)c1ccc(NCCSc2ccccc2)c([N+](=O)[O-])c1)c1ccc(N2CCNCC2)cc1
14,0.52,CNc1cccc(CCOc2ccc(C[C@H](NC(=O)c3c(C)cc(C)cc3C)C(=O)O)cc2)n1
15,-0.48,O=C(N[C@@H](Cc1ccc(OCCNc2ccccn2)cc1)C(=O)O)c1c(Cl)cccc1Cl
16,0.16,O=C(N[C@@H](Cc1cccc(OCCCNc2ccccn2)c1)C(=O)O)c1c(Cl)cccc1Cl
17,0.51,O=C(N[C@@H](Cc1ccc(CCCCNc2ccccn2)cc1)C(=O)O)c1c(Cl)cccc1Cl
18,-0.63,O=C(Cc1ccc2c(n1)NCCC2)Nc1ccc(C[C@H](NC(=O)c2c(Cl)cccc2Cl)C(=O)O)cc1
19,0.5,CCCSc1nc2ccc(NC(=O)CCC(=O)O)cc2s1
20,-0.87,CC(=O)Nc1ccc2c(c1)c(-c1cc(NC3CC3)n3ncc(C#N)c3n1)cn2CCC(=O)O
21,0.61,N#Cc1ccc(-c2cc(NC(N)=O)c(C(=O)N[C@H]3CCCNC3)s2)cc1
22,-0.62,COc1c(N2CCO[C@@H](CN(C)C)C2)c(F)cc2c(=O)c(C(=O)O)cn(C3CC3)c12
23,0.7,N#Cc1cccc(-c2cccc(-c3nn[nH]n3)c2)c1
24,0.56,CC1CC(=O)Nc2ccccc2N1 (stereo unspecified)

row,logD,SMILES
1,0.4,NC(=O)C1CCN(CC(=O)Nc2ccc3c(c2)OCO3)CC1
2,0.66,O=C(O)CCCS(=O)(=O)c1cccc(C(=O)N2CCC(N3CCC(Oc4ccc(Cl)c(Cl)c4)CC3)CC2)c1
3,0.64,CCCSc1c(C(=O)NC2CCCCC2)cnn1-c1ccc(C(=O)O)cc1
4,0.59,CCCSc1c(C(=O)N(C)C2CCCCC2)cnn1-c1ccc(C(=O)O)cc1
5,-0.1,Nc1nnc(CCSCCc2nnc(N)s2)s1
6,0.54,O=S(=O)(Nc1cccnc1)c1cccs1
7,0.74,COc1cc(/C=C2/SC(=O)NC2=O)cc(OC)c1O
8,0.61,OCC[C@]1(c2ccc(Cl)c(Cl)c2)CCCNC1
9,0.62,OCC[C@@]1(c2ccc(Cl)c(Cl)c2)CCCNC1
10,0.12,OCC[C@]1(c2cc3ccccc3o2)CCCNC1
11,0.06,OCC[C@@]1(c2cc3ccccc3o2)CCCNC1
12,-0.12,Nc1nc2cc3c(cc2s1)CCN(Cc1cnc[nH]1)CC3
13,-0.87,Cc1cn([C@H]2CCCN(S(=O)(=O)c3ccc(C(=O)O)c(Oc4ccc(Cl)c(Cl)c4)c3)C2)c(=O)[nH]c1=O
14,0.75,O=C(COc1ccccc1)N1CCOCC1
15,0.62,CC1(c2ccccc2)CC(=O)NC(N)=N1 (stereo unspecified)
16,0.69,CCOC(=O)c1cc(O)c(-c2ccccc2)nn1
17,0.36,O=S(=O)(Nc1nccs1)c1ccc(O)cc1
18,0.84,CC(C)C(NC(=O)Cn1c(-c2ccccc2)ccc(NC(=O)OCc2ccc(C(=O)O)cc2)c1=O)C(=O)C(F)(F)F (stereo unspecified)
19,0.4,NCc1nc2ccccc2[nH]1
20,-0.13,Cc1cccc(Br)c1C(=O)N[C@@H](Cc1ccc(NC(=O)c2c(Cl)cccc2Cl)cc1)C(=O)O
21,0.53,Cc1cc(N)c2cc(NC(=O)CCCCC(=O)Nc3ccc4nc(C)cc(N)c4c3)ccc2n1
22,0.61,O=S(=O)(NCCNc1ncccn1)c1cccc2cnccc12
23,0.75,CN(CCCc1ccccc1)S(=O)(=O)c1cc(C(=O)N2CCc3ccc(S(=O)(=O)NCCc4ccccc4)cc3C2)c(O)c(O)c1O
24,0.18,N=C(N)NCCC[C@H](NC(=O)COCC(c1ccccc1)c1ccccc1)C(=O)O

row,logD,SMILES
1,0.08,O=C(N[C@@H](Cc1ccc(N2CCN(c3ccccc3)CC2)cc1)C(=O)O)c1c(Cl)cccc1Cl
2,-0.31,N=C(N)Nc1ccc(Cl)c(Cl)c1
3,0.9,COc1cc(C(=O)NS(=O)(=O)c2ccccc2)ccc1Cn1cnc2ccc(NC(=O)CC3CCCC3)cc21
4,0.68,CC(C)C(NC(=O)Cn1c(-c2ccccc2)ccc(NC(=O)Cc2cccc(C(=O)O)c2)c1=O)C(=O)C(F)(F)F (stereo unspecified)
5,0.7,CC(=O)NC[C@H]1CN(c2ccc(-n3ccnc3)c(F)c2)C(=O)O1
6,0.75,c1ccc(C2OC3(CCNCC3)c3ccccc32)cc1 (stereo unspecified)
7,0.89,c1cnc2cccnc2c1
8,0.7,CNC(=O)c1ccc(-c2cc(C(=O)N[C@H]3CCCNC3)c(NC(N)=O)s2)cc1
9,0.42,O=C(COc1ccc(OCCNCC(O)COc2ccccc2)cc1)NCCO (stereo unspecified)
10,0.2,c1ccc(OCC2CNCCO2)cc1 (stereo unspecified)
11,0.68,CS(=O)(=O)c1ccc(-c2cc(C(=O)N[C@H]3CCCNC3)c(NC(N)=O)s2)cc1
12,0.7,Cc1cc2nc(NC(=N)N)nc(C)c2cc1C
13,0.5,N=C(N)Nc1ccc(C(=O)Oc2ccc([N+](=O)[O-])cc2)cc1
14,0.44,NNc1nc2ccccc2[nH]c1=O
15,-0.49,Cc1nc(NC(=N)N)nc2ccccc12
16,0.49,Cc1cc(C)c(C(=O)N[C@@H](Cc2ccc(OCCCNc3ccccn3)cc2)C(=O)O)c(C)c1
17,0.7,COC1/C=C/OC2(C)Oc3c(C)c(O)c4c(c3C2=O)C(=O)C=C(NC(=O)/C(C)=C\C=C\C(C)C(O)C(C)C(O)C(C)C(OC(C)=O)C1C)C4=O (stereo unspecified)
18,0.2,O=c1ccnc2ccccn12
19,-0.45,Nc1nc(N)c2nc(CO)cnc2n1
20,-0.27,COc1cccc(OC)c1-c1ccc(C[C@H](NC(=O)c2c(Cl)cccc2Cl)C(=O)O)cc1
